Results as given in patent US11634391B2, “Compounds which are inhibitors of Notum” (UCL BUSINESS LTD, priority 2018, dated 2023).
pIC50: −log10 of the molar value. Where a name gives a salt, the structure may show the parent alone.

Molecular target: notum carboxyesterase enzyme (Homo sapiens (Human), UniProt Q6P988)
Assay: Biochemical Notum Enzymatic Activity Assay (OPTS substrate, fluorescence)
Settings: 2 μM OPTS solution, 2.38 nM notum enzyme solution, 1 hour incubation at room temperature, fluorescence ex 485 nm / em 520 nm; n≥2
Text: Plate layout and measured fluorescence values were input into Dotmatics Studies data management tool.

Sequence of notum carboxyesterase enzyme (Q6P988 20-496): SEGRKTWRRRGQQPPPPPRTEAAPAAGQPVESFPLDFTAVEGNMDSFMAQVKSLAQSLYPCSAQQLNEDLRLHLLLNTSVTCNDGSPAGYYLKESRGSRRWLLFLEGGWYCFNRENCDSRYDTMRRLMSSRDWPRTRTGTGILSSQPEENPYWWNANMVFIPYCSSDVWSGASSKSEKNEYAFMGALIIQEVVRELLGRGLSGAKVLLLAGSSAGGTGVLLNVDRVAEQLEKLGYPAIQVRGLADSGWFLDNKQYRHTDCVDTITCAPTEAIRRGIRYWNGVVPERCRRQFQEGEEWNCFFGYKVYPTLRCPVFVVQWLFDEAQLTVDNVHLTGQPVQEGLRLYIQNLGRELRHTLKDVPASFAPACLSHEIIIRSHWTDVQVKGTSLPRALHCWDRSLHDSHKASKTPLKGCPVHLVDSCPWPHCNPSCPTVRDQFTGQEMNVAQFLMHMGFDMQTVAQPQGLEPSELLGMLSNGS

| Structure (SMILES) | pIC50 |
| --- | --- |
| OCc1cn(-c2ccc3nccnc3c2)nn1 [Compound 12, (1-(quinoxalin-6-yl)-1H-1,2,3-triazol-4-yl)methanol] | 4.28 |
| O=C(O)c1cc(-c2ccc(Cl)cc2)c[nH]1 [Compound 160, 4-(4-chlorophenyl)-1H-pyrrole-2-carboxylic acid] | 4.68 |
| OCc1cn(-c2ccc3c(c2)OCO3)nn1 [Compound 4, (1-(benzo[d][1,3]dioxol-5-yl)-1H-1,2,3-triazol-4-yl)methanol] | 4.43 |
| Clc1ccc(-n2ccnc2)cc1 [Compound 149, 1-(4-chlorophenyl)imidazole] | 5.29 |
| OCc1cc(-c2ccc(Cl)cc2)[nH]n1 [Compound 171, [5-(4-chlorophenyl)-1H-pyrazol-3-yl]methanol] | < 5.00 |
| OCc1nnc(-c2ccc(Cl)c(Cl)c2)o1 [Compound 126, [5-(3,4-dichlorophenyl)-1,3,4-oxadiazol-2-yl]methanol] | 6.14 |
| NCc1nc(-c2ccc(Cl)cc2)no1 [Compound 152, [3-(4-chlorophenyl)-1,2,4-oxadiazol-5-yl]methanamine] | 4.37 |
| Oc1nnc(-c2ccc(C3CC3)nc2)o1 [Compound 209, 5-(6-cyclopropyl-3-pyridyl)-1,3,4-oxadiazol-2-ol] | 4.36 |
| Oc1nnc(-c2cc(C3CC3)cc(C(F)(F)F)c2)o1 [Compound 211, 5-[3-cyclopropyl-5-(trifluoromethyl)phenyl]-1,3,4-oxadiazol-2-ol] | 6.36 |
| CC(C)c1ccc(-n2ccnn2)cc1 [Compound 60, 1-(4-isopropylphenyl)-1H-1,2,3-triazole] | 6.00 |
| OCc1cn(-c2cccc(Cl)c2)nn1 [Compound 21, (1-(3-chlorophenyl)-1H-1,2,3-triazol-4-yl)methanol] | 5.02 |
| O=c1cc(-c2ccccc2)cc[nH]1 [Compound 236, 4-phenylpyridin-2(1H)-one] | 4.85 |
| Clc1ccc(-c2n[nH]c(-c3ccccn3)n2)cc1Cl [Compound 130, 2-(3-(3,4-dichlorophenyl)-1H-1,2,4-triazol-5-yl)pyridine] | 6.22 |
| Cc1cc(C)cc(-n2cnnn2)c1 [Compound 194, 1-(3,5-dimethylphenyl)tetrazole] | 5.49 |
| FC1CN(c2cc(-n3ccnn3)ccc2C(F)(F)F)C1 [Compound 288, 1-(3-(3-fluoroazetidin-1-yl)-4-(trifluoromethyl)phenyl)-1H-1,2,3-triazole] | 6.61 |
| Fc1cc(F)cc(-c2cc[nH]n2)c1 [Compound 56, 3-(3,5-difluorophenyl)-1H-pyrazole] | 4.64 |
| FC(F)(F)c1cccc(-c2nnco2)n1 [Compound 221, 2-[6-(trifluoromethyl)-2-pyridyl]-1,3,4-oxadiazole] | 4.08 |
| CN1CC(C)(C)c2cc(-c3nnc(O)o3)ccc21 [Compound 180, 5-(1,3,3-trimethylindolin-5-yl)-1,3,4-oxadiazol-2-ol] | 7.46 |
| O=c1cccc(-c2ccccc2)[nH]1 [Compound 237, 6-phenylpyridin-2(1H)-one] | 4.30 |
| OCc1ncn(-c2ccc(Cl)c(Cl)c2)n1 [Compound 47, (1-(3,4-dichlorophenyl)-1H-1,2,4-triazol-3-yl)methanol] | 4.31 |
| NCc1cc(-c2ccc(Cl)cc2)no1 [Compound 167, (3-(4-chlorophenyl)isoxazol-5-yl)methanamine] | 4.15 |
| Cn1nc(-c2ccc(Cl)cc2)oc1=O [Compound 229, 5-(4-chlorophenyl)-3-methyl-1,3,4-oxadiazol-2(3H)-one] | 4.58 |
| OCc1cn(-c2cc(Cl)cc(Cl)c2)nn1 [Compound 27, (1-(3,5-dichlorophenyl)-1H-1,2,3-triazol-4-yl)methanol] | 5.52 |

Now from value to compound:

| pIC50 | Structure (SMILES) |
| --- | --- |
| 5.18 | COc1cc(-n2cc(CO)nn2)ccc1Cl [Compound 30, (1-(4-chloro-3-methoxyphenyl)-1H-1,2,3-triazol-4-yl)methanol] |
| 5.88 | FC(F)(F)c1c(Cl)ccc(-n2cnnc2)c1Cl [Compound 300, 4-(2,4-dichloro-3-(trifluoromethyl)phenyl)-4H-1,2,4-triazole] |
| 7.50 | CNc1nnc(-c2ccc(Cl)c(C(F)(F)F)c2Cl)o1 [Compound 249, 5-(2,4-dichloro-3-(trifluoromethyl)phenyl)-N-methyl-1,3,4-oxadiazol-2-amine] |
| 4.71 | CC(=O)NCc1cn(-c2ccc(Cl)c(Cl)c2)nn1 [Compound 42, N-((1-(3,4-dichlorophenyl)-1H-1,2,3-triazol-4-yl)methyl)acetamide] |
| < 5.00 | CC(O)c1cn(-c2ccc(Cl)c(Cl)c2)nn1 (stereo not drawn) [Compound 40, 1-(1-(3,4-dichlorophenyl)-1H-1,2,3-triazol-4-yl)ethan-1-ol] |
| 6.97 | Cc1cn(-c2ccc(Cl)c(C(F)(F)F)c2Cl)nn1 [Compound 301, 1-(2,4-dichloro-3-(trifluoromethyl)phenyl)-4-methyl-1H-1,2,3-triazole] |
| 6.83 | OCCc1cn(-c2ccc(Cl)c(C(F)(F)F)c2)nn1 [Compound 303, 2-[1-[4-chloro-3-(trifluoromethyl)phenyl]triazol-4-yl]ethanol] |
| 4.59 | OCc1cn(-c2cc(Cl)ccc2Cl)nn1 [Compound 26, (1-(2,5-dichlorophenyl)-1H-1,2,3-triazol-4-yl)methanol] |
| 8.02 | OCc1cn(-c2ccc(Cl)c(C(F)(F)F)c2Cl)nn1 [Compound 277, [1-[2,4-dichloro-3-(trifluoromethyl)phenyl]triazol-4-yl]methanol] |
| 4.13 | CN(C)Cc1cn(-c2ccc(Cl)c(Cl)c2)nn1 [Compound 44, 1-(1-(3,4-dichlorophenyl)-1H-1,2,3-triazol-4-yl)-N,N-dimethylmethanamine hydrochloride] |
| 6.16 | OCc1cn(-c2ccc(Cl)c(OC(F)(F)F)c2)nn1 [Compound 270, (1-(4-chloro-3-(trifluoromethoxy)phenyl)-1H-1,2,3-triazol-4-yl)methanol] |
| 8.37 | CCOc1nnc(-c2ccc(Cl)c(C(F)(F)F)c2Cl)o1 [Compound 242, 2-(2,4-dichloro-3-(trifluoromethyl)phenyl)-5-ethoxy-1,3,4-oxadiazole] |
| 5.14 | OCc1cn(-c2ccc(Cl)cc2Cl)nn1 [Compound 8, (1-(2,4-dichlorophenyl)-1H-1,2,3-triazol-4-yl)methanol] |
| 5.81 | Clc1ccc(-n2cnnn2)cc1Cl [Compound 214, 1-(3,4-dichlorophenyl)tetrazole] |
| 5.17 | OCc1cn(-c2cccc(Cl)c2Cl)nn1 [Compound 7, (1-(2,3-dichlorophenyl)-1H-1,2,3-triazol-4-yl)methanol] |
| 7.71 | FC(F)(F)c1cc(-c2c[nH]nn2)ccc1Cl [Compound 50, 4-(4-chloro-3-(trifluoromethyl)phenyl)-1H-1,2,3-triazole] |
| 6.34 | FC(F)(F)c1cc(-n2cnnn2)ccc1Cl [Compound 215, 1-[4-chloro-3-(trifluoromethyl)phenyl]tetrazole] |
| 7.92 | Nc1nnc(-c2ccc(Cl)c(C(F)(F)F)c2Cl)o1 [Compound 248, 5-[2,4-dichloro-3-(trifluoromethyl)phenyl]-1,3,4-oxadiazol-2-amine] |
| 5.76 | OCc1cn(-c2ccc(C(F)(F)F)c(Cl)c2)nn1 [Compound 13, (1-(3-chloro-4-(trifluoromethyl)phenyl)-1H-1,2,3-triazol-4-yl)methanol] |
